Reference: patent publication US20230286927A1, “2-PHENYLBENZOTRIAZOL-5-AMINE DERIVATIVES FOR THE TREATMENT AND PROPHYLAXIS OF HEPATITIS B VIRUS (HBV) INFECTION” (priority 2020, published 2023)

Columns and labels:
[1] = Cytotoxicity in PHH natural infection assay (Cell Counting Kit-8); format: cell-based; settings: HBV-infected primary human hepatocytes, CCK8
Method: (§1) Detailed procedures regarding primary human hepatocyte (PHH) HBV natural infection assay are described as below. One tube of frozen PHH (10 million cells) is thawed in 37° C. water bath and then transferred to 20 mL of PHH thawing medium (Sigma, InVitroGRO HT Medium, Cat. S03319) with gently mixing. The cells were then centrifuged at […] for 5 min, the supernatant was discarded and the tube was refilled with 25 mL of PHH plating medium (Sigma, InVitroGRO CP Medium, Cat. S03317). The tube was shaken very gently to re-suspend all cells, and then 50 μl of cells were transferred to each well 384-well collagen I coated plate with appropriate liquid handling equipment, e.g. Integra VIAFLO384 or Agilent Bravo. The cells were then cultured for 24 hours in a cell incubator. For HBV infection, after PHH attachment on the culture plate, the plating medium was removed and replenished with PHH culture medium containing HBV virus. The PHH culture medium was prepared with Dulbecco's Modified Eagle Medium (DMEM)/F12 (1:1 in volume ratio) containing 10% fetal bovine serum (Gibco, Cat. 10099141), 5 ng/mL human epidermal growth factor (Gibco, Cat.PHG031IL), 20 ng/mL dexamethasone (Sigma, Cat.D4902-100 mg), 250 ng/mL human recombinant insulin (Gibco, Cat.41400045) and 100 U/mL penicillin. HBV virus at 200 genome equivalent (GE) per cell with 4% PEG8000 (Sigma, Cat.P1458) containing culture medium were added to the PHH culture medium for infection. The cells were then cultured for 24 hours in cell incubator. Then the cell culture supernatant was removed. The HBV-infected PHH were cultured with sandwich culture method with PHH culture medium containing 1% DMSO and 0.25 mg/mL matrix gel for 72 hours. The supernatant was then refreshed with PHH culture medium containing different concentrations of testing compounds for two times with 72-hour interval. At the end of treatment, the supernatant was collected for viral markers measurements, including HBsAg, HBeAg, HBV DNA and cytotoxicity. HBsAg and HBeAg were detected using alphalisa method using their specific antibodies. For HBV DNA detection, HBV DNA Quantitative Fluorescence Diagnostic Kit (Sansure Biotech Inc.) was used following the manufacture's protocol. Cytotoxicity was determined using Cell Counting Kit-8 (CCK8, Dojindo Molecular Technologies, Inc.).

HBsAg = assay: PHH natural infection assay, HBsAg (alphalisa); format: cell-based, HBV; settings: Hepatitis B virus, Hepatocyte, 72 h, read-out: HBsAg IC50
Method: as §1
(§2) The compounds of the present invention were tested for their capacity to inhibit HBsAg and HBeAg as described herein.

HBeAg = assay: PHH natural infection assay, HBeAg (alphalisa); format: cell-based, HBV; settings: Hepatitis B virus, Hepatocyte, 72 h, read-out: HBeAg IC50
Method: as §1, §2

Compound | CC50 at 144 h [1] [µM] | IC50 (HBsAg) [µM] | IC50 (HBeAg) [µM]
O=C(Nc1ccc2nn(-c3ccc(Cl)cc3)nc2c1)C1CCOCC1 [Example 45, N-[2-(4-chlorophenyl)benzotriazol-5-yl]tetrahydropyran-4-carboxamide] | > 100 | 3.39 | 1.98
O=C(CC(F)(F)F)Nc1ccc2nn(-c3ccc(Cl)cc3)nc2c1 [Example 51, N-[2-(4-chlorophenyl)benzotriazol-5-yl]-3,3,3-trifluoro-propanamide] | > 100 | 4.09 | 1.66
Cc1csc(Nc2ccc3nn(-c4ccc(Cl)cc4)nc3c2)n1 [Example 64, N-[2-(4-chlorophenyl)benzotriazol-5-yl]-4-methyl-thiazol-2-amine] | > 100 | 1.42 | 3.04
Nc1ccc2nn(-c3ccc(Cl)cc3)nc2c1 [Example 2, 2-(4-Chlorophenyl)benzotriazol-5-amine] | > 100 | 7.97 | 5.29
COCCN(C)c1ccc2nn(-c3ccc(Cl)cc3)nc2c1 [Example 35, 2-(4-Chlorophenyl)-N-(2-methoxyethyl)-N-methyl-benzotriazol-5-amine] | > 100 | 2 | 3.5
O=C(NC(=S)Nc1ccc2nn(-c3ccc(Cl)cc3)nc2c1)C1CCCC1 [Example 56, N-[[2-(4-chlorophenyl)benzotriazol-5-yl]carbamothioyl]cyclopentanecarboxamide] | > 100 | 3.45 | 7.5
O=C(CCC(F)(F)F)Nc1ccc2nn(-c3ccc(Cl)cc3)nc2c1 [Example 52, N-[2-(4-chlorophenyl)benzotriazol-5-yl]-4,4,4-trifluoro-butanamide] | > 100 | 2.25 | 1.89
Clc1ccc(-n2nc3ccc(NCC4CCC4)cc3n2)cc1 [Example 24, 2-(4-Chlorophenyl)-N-(cyclobutylmethyl)benzotriazol-5-amine] | > 100 | 7.72 | 8.9
Clc1ccc(-n2nc3ccc(NCC4CCCC4)cc3n2)cc1 [Example 26, 2-(4-Chlorophenyl)-N-(cyclopentylmethyl)benzotriazol-5-amine] | > 100 | 8.79 | 3.08
O=C(Nc1ccc2nn(-c3ccc(F)cc3)nc2c1)C1CCCC1 [Example 43, N-[2-(4-fluorophenyl)benzotriazol-5-yl]cyclopentanecarboxamide] | > 100 | 8.2 | 12.8
Fc1ccc(-n2nc3ccc(NC4CCOC4)cc3n2)cc1 (stereo not drawn) [Example 21, 2-(4-Fluorophenyl)-N-tetrahydrofuran-3-yl-benzotriazol-5-amine] | > 100 | 9.74 | 10.6
CN(C)c1ccc2nn(-c3ccc(Cl)cc3)nc2c1 [Example 33, 2-(4-Chlorophenyl)-N,N-dimethyl-benzotriazol-5-amine] | > 100 | 4 | 3.71
NC(=S)Nc1ccc2nn(-c3ccc(Cl)cc3)nc2c1 [Example 53, [2-(4-Chlorophenyl)benzotriazol-5-yl]thiourea] | > 100 | 3.37 | 2.87
Nc1ccc2nn(-c3cccc(Cl)c3)nc2c1 [Example 1, 2-(3-Chlorophenyl)benzotriazol-5-amine] | > 100 | 1.2 | 1.8
Clc1ccc(-n2nc3ccc(NCC4CCCO4)cc3n2)cc1 (stereo not drawn) [Example 27, 2-(4-Chlorophenyl)-N-(tetrahydrofuran-2-ylmethyl)benzotriazol-5-amine] | > 100 | 6.07 | 11.7
CNC(=S)Nc1ccc2nn(-c3ccc(Cl)cc3)nc2c1 [Example 54, 1-[2-(4-chlorophenyl)benzotriazol-5-yl]-3-methyl-thiourea] | > 100 | 2.68 | 4.59
